# Test results taken from article PMC10483858 (Molecular Cancer, 2023).
# Columns and labels:
# [1] = test system: hPD-1/mPD-L1 immune checkpoint (Jurkat-ECs with B16-F10/TCRAct cells); conditions: ref [12]; cited from earlier work
# Protocol: To evaluate the bioactivity of the pAC65 peptide, cell-based immune checkpoint blockade assays, T-cell activation (TCA) assay, and a viability assay were performed.
# [2] = test system: hPD-1/hPD-L1 immune checkpoint (Jurkat-ECs with CHO/TCRAct/PD-L1 cells); assay: Immune checkpoint blockade (ICB) assay, hPD-1/hPD-L1 setup; format: cell-based, human; conditions: for blockade of hPD-1/hPD-L1, restored activation of Jurkat-ECs (in words): 24-hour incubation, in parallel to hPD-1/mPD-L1 assay, Fig. 2C
# Protocol: (§1) The peptide was tested along with three therapeutic antibodies, atezolizumab, avelumab, and durvalumab.
# (§2) Data points represent mean ± SD values from 4–6 independent experiments. […] Triton X-100-treated cells and cells without the addition of a Redox Dye were used as baseline controls. […] In the assay, three antibodies (atezo. – atezolizumab, ave. – avelumab, durva. – durvalumab) and the peptide pAC65 were used. […] The graphs show fractions of positive cells and represent cumulative data from 3–4 donors.
# These cell lines were cultured in RPMI 1640 medium (Biowest) supplemented with 10% fetal bovine serum (FBS, Biowest) and […] L-glutamine (Biowest). The selection antibiotics: G418 (250 μg/mL, InvivoGen) and Hygromycin B Gold (50 μg/mL, InvivoGen) were also added to the culture medium as per application.
# The assay was performed according to the manufacturer’s protocol (Promega). […] The dilutions of monoclonal antibodies were prepared in the assay buffer. Followed by a 6-hour (routinely) or 24-hour (for testing bioactivity in parallel to the hPD-1/mPD-L1 ICB assay) incubation at 37°C and 5% CO2, and an additional 20 min of incubation with the luminescence reagent (Bio-Glo™ Luciferase Assay System, Promega) at room temperature, activation of Jurkat ECs, reflected by luciferase activity, was monitored by luminescence measurements on a Spark microplate reader (Tecan). […] Data points represent mean ± SD values from four to eight independent experiments. EC50 values as half-maximal effective concentrations were calculated from the Hill curve fitting to the experimental data using Origin Pro 2020 software (OriginLab).
# [3] = test system: hPD-1/mPD-L1 immune checkpoint (Jurkat-ECs with B16-F10/TCRAct cells); assay: Immune checkpoint blockade (ICB) assay, hPD-1/mPD-L1 setup; format: cell-based, human (hPD-1); conditions: B16-F10/TCRAct cells treated with 20 ng/ml mouse IFN-γ for 48 h; 24 h co-culture, Fig. 2D; three independent experiments
# Protocol: as §1, §2
# Mouse skin melanoma B16-F10 cell line was purchased from the American Type Culture Collection (ATCC) and cultured in RPMI 1640 medium (Biowest) supplemented with 10% fetal bovine serum (FBS, Biowest) and […] L-glutamine (Biowest). The generation of the B16-F10 cells overexpressing TCR-Activator (maAPCs) clone 3A5 was described in our previous work (Magiera-Mularz et al., 2021). […]
# B16-F10/TCRAct cells (maAPCs) were seeded on 96-well white bottom plates at the density of 2,000 cells/well and treated with 20 ng/ml of mouse recombinant IFN-γ (Thermo Fisher Scientific) for 48 hours before the ICB assay. […] After 24 hours (37°C, 5% CO2) and 20 min of additional incubation with the luminescence reagent (Bio-Glo™ Luciferase Assay System, Promega) at room temperature, activation of Jurkat ECs was monitored by luminescence measurements on a Spark microplate reader (Tecan). […]
# [4] = test system: PD-L1/CD80 and PD-1/PD-L1 pathways; conditions: ref [14]; cited from earlier work
Molecule,specificity towards hPD-L1 / failure to target mouse PD-L1 (previous studies) [1],"blockade of hPD-1/hPD-L1, restored activation of Jurkat-ECs (in words) [2]","blockade of hPD-1/mPD-L1, restored activation of Jurkat-ECs (in words) [3]",blocking of both PD-L1/CD80 and PD-1/PD-L1 pathways [4],"EC50 ([2]; luciferase luminescence, 6-hour incubation (routinely), 37°C, 5% CO2, 0.1% DMSO (pAC65), Hill fit, 4–6 independent experiments, read-out: EC50, activation of Jurkat-ECs) [nM]"
Cc1cc(CN[C@H](CO)C(=O)O)c(OCc2cccc(C#N)c2)cc1OCc1cccc(-c2ccc3c(c2)OCCO3)c1C [BMS-1001],specificity towards the hPD-L1 protein,,,,
avelumab: therapeutic PD-L1-blocking monoclonal antibody (MedChemExpress),,restored the activation of Jurkat-ECs blocked with either the hPD-L1-expressing or mPD-L1 expressing cells,restored the activation of Jurkat-ECs blocked with either the hPD-L1-expressing or mPD-L1 expressing cells,Blocking of both PD-L1/CD80 and PD-1/PD-L1 pathways has also been documented,
Cc1c(COc2cc(OCc3cccc(C#N)c3)c(CN3C[C@H](O)C[C@@H]3C(=O)O)cc2Cl)cccc1-c1ccc2c(c1)OCCO2 [BMS-1166],specificity towards the hPD-L1 protein,,,,
atezolizumab: therapeutic PD-L1-blocking monoclonal antibody (Selleckchem),,efficiently blocked the hPD-1/hPD-L1 immune checkpoint,,Blocking of both PD-L1/CD80 and PD-1/PD-L1 pathways has also been documented,0.14
durvalumab: therapeutic PD-L1-blocking monoclonal antibody (Selleckchem),,efficiently blocked the hPD-1/hPD-L1 immune checkpoint,atezolizumab but not durvalumab was able to block the hPD-1/mPD-L1 immune checkpoint,Blocking of both PD-L1/CD80 and PD-1/PD-L1 pathways has also been documented,
